Data set [1] addresses T1, Cytochrome P450 3A4 (Homo sapiens, UniProt P08684). Nature of the data set: Drug metabolism in supersomes expressing human recombinant CYP3A4 assessed as for NADPH-fortified enzyme-mediated metabolite M1 ((4R,12aS)-7-hydroxy-4-methyl-6,8-dioxo-3,4,6,8,12,12a-hexahydro-2H-[1,3]oxazino[3,2-d]pyrido[1,2-a]pyrazine-9-carboxamide) formation at 5 uM after 120 mins by radio-HPLC analysis. The data set is classed as ADME.

The next data set addresses T2, Cytochrome P450 2C8 (Homo sapiens, UniProt P10632).
T2 sequence (P10632 whole entry): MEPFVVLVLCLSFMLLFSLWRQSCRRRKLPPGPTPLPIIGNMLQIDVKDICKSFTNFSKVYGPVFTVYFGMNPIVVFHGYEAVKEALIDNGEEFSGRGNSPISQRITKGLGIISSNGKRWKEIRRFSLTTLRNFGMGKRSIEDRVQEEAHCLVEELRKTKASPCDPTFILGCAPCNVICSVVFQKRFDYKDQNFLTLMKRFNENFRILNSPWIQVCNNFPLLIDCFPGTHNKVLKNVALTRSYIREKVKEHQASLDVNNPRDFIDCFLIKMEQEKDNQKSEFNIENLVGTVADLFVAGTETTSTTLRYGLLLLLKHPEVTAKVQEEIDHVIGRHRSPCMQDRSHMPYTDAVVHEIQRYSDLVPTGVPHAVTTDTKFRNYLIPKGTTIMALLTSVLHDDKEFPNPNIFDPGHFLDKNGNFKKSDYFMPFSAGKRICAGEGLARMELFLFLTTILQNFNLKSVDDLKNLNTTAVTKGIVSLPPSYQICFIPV
In words: Drug metabolism in supersomes expressing human recombinant CYP2C8 assessed as NADPH-fortified enzyme-mediated metabolite formation at 5 uM after 120 mins by radio HPLC analysis. The format is ADME. Conditions: 2 h.

The target of data set [2] is UDP-glucuronosyltransferase 1A6 (Homo sapiens, UniProt P19224). In words: Drug metabolism assessed as UDPGA-fortified human recombinant UGT1A6-mediated DTG glucuronide metabolite ((2S,3S,4S,5R,6S)-6-((4R,12aS)-9-(2,4-difluorobenzylcarbamoyl)-4-methyl-6,8-dioxo-3,4,6,8,12,12a-hexahydro-2H-[1,3]oxazino[3,2-d]pyrido[1,2-a]pyrazin-7-yloxy)-3,4,5-trihydroxytetrahydro-2H-pyran-2-carboxylic acid) formation at 16 uM after 120 mins by radio-HPLC analysis. The data set is classed as ADME. Conditions: recombinant enzyme.
UDP-glucuronosyltransferase 1A6, sequence (P19224 whole entry): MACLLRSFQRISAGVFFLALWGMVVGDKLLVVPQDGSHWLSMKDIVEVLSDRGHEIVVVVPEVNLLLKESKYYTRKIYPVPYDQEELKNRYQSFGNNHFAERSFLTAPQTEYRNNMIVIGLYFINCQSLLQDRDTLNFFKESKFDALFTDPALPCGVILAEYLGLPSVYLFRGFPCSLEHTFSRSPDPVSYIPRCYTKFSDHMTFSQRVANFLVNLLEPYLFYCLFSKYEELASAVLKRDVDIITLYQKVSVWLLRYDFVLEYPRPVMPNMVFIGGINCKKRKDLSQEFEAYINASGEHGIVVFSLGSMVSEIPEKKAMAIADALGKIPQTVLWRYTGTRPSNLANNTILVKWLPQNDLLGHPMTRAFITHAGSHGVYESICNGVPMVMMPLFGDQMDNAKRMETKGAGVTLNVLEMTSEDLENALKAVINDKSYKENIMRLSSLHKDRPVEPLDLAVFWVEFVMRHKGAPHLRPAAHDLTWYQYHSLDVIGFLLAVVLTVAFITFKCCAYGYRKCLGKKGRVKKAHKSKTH

Data set [3] addresses T3, UDP-glucuronosyltransferase 1A1 (Homo sapiens, UniProt P22309).
T3 sequence (P22309 whole entry): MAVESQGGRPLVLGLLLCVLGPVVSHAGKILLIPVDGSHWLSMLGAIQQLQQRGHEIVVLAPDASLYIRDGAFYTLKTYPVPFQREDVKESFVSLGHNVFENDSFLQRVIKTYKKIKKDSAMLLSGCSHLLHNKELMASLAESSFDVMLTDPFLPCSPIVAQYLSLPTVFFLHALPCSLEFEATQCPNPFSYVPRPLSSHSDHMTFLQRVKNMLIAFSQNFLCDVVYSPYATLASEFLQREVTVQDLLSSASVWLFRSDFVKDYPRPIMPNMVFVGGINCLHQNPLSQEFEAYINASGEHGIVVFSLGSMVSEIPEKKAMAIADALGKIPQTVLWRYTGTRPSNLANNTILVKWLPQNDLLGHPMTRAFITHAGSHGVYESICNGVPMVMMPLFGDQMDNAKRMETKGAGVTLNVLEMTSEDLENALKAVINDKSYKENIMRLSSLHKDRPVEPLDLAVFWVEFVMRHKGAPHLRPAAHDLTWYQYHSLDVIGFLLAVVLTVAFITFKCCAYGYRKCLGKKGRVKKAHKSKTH
Nature of the data set: Drug metabolism assessed as UDPGA-fortified human recombinant UGT1A1-mediated DTG glucuronide metabolite ((2S,3S,4S,5R,6S)-6-((4R,12aS)-9-(2,4-difluorobenzylcarbamoyl)-4-methyl-6,8-dioxo-3,4,6,8,12,12a-hexahydro-2H-[1,3]oxazino[3,2-d]pyrido[1,2-a]pyrazin-7-yloxy)-3,4,5-trihydroxytetrahydro-2H-pyran-2-carboxylic acid) formation at 16 uM after 120 mins by radio-HPLC analysis. The format is ADME. Conditions: recombinant enzyme.

Data set [4] concerns the target T3, UDP-glucuronosyltransferase 1A1. Nature of the data set: Inhibition of human recombinant UGT1A1 expressed in supersomes assessed as scopoletin glucuronidation by fluorescence analysis. The data set is classed as ADME.
For a further data set, the target named is T4, BCRP (ABCG2) (Homo sapiens, UniProt Q9UNQ0).
T4 sequence (Q9UNQ0 whole entry): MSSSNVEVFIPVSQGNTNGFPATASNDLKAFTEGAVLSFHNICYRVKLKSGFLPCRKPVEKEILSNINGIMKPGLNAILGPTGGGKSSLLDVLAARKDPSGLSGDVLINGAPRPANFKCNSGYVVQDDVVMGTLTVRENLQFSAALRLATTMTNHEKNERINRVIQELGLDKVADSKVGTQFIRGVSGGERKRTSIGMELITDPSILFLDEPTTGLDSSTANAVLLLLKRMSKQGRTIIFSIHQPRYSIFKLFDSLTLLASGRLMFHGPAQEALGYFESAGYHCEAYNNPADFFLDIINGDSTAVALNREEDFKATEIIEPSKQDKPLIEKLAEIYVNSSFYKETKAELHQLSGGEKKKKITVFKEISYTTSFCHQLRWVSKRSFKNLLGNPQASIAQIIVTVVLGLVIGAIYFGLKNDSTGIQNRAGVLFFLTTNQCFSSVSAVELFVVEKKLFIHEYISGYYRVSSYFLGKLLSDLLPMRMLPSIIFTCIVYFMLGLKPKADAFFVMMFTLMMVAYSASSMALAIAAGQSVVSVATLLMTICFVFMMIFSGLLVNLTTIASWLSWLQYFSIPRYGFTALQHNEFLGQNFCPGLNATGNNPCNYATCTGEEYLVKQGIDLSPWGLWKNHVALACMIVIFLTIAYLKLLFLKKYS
In words: Activity at human BCRP expressed in MDCK2 cells assessed as basolateral to apical mass balance at 3 uM by liquid scintillation counting analysis in presence of 3 uM P-gp and BCRP inhibitor GF120918. The data set is classed as ADME, cell-based, MDCK-II. Particulars: with GF120918 (P-gp and BCRP inhibitor), read-out: Activity.

Another data set has as its target CYP3A4 (Homo sapiens, UniProt P08684). In words: Inhibition of CYP3A4 in human liver microsomes using nifedipine as substrate at 100 uM preincubated for 20 mins with substrate prior to initiation of reaction with NADPH by HPLC analysis. The format is ADME. Conditions: probe nifedipine. For orientation: Liver microsomes are a subcellular fraction often used to study metabolism.

Data set [5] is described as follows: Protein binding in plasma (unknown origin). The format is ADME, cell-free. Particulars: read-out: PPB.
The target of data set [6] is T1, Cytochrome P450 3A4. Nature of the data set: Drug metabolism in supersomes expressing human recombinant CYP3A4 assessed as intrinsic clearance for NADPH-fortified enzyme-mediated metabolite M3 ((4R,12aS)-N-((3,5-difluorophenyl)(hydroxy)methyl)-7-hydroxy-4-methyl-6,8-dioxo-3,4,6,8,12,12a-hexahydro-2H-[1,3]oxazino[3,2-d]pyrido[1,2-a]pyrazine-9-carboxamide) formation at 5 uM after 120 mins by radio-HPLC analysis. The format is ADME.

As usually defined, the IC50 is the midpoint of a concentration-inhibition curve. One may read the inhibition as the percentage by which the read-out fell short of the control. High values mean strong suppression, low ones little suppression.

Molecules are shown by their SMILES.

T1 sequence (P08684 whole entry): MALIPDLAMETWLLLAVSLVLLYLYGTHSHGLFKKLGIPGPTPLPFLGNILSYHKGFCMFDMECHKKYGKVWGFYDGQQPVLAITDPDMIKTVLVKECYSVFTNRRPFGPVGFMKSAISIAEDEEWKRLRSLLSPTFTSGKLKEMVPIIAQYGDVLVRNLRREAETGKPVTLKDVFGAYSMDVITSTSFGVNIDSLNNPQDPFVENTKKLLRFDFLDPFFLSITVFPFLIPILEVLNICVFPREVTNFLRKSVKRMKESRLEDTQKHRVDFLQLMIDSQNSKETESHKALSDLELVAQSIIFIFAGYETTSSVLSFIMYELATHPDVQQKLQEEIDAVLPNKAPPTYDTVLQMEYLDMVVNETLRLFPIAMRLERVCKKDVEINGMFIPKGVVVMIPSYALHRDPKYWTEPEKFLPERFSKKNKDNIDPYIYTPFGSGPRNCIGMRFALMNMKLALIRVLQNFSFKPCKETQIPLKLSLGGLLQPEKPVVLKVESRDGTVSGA
CYP3A4, sequence (P08684 whole entry): as above

For `C[C@@H]1CCO[C@H]2Cn3cc(C(=O)NCc4ccc(F)cc4F)c(=O)c(O)c3C(=O)N12` [DOLUTEGRAVIR], the Drug metabolism result on Cytochrome P450 3A4 [1] is reported as “metabolite_detected”; on Cytochrome P450 2C8, “metabolite_not_detected”; in data set [2], “metabolite_not_detected”; in data set [3], “metabolite_detected”. The IC50 in data set [4] was above 100 µM. At BCRP (ABCG2), the recovery at 3 µM is 76%. The same molecule showed an inhibition at 100 µM against CYP3A4 of 20%. Also, the fraction unbound in [5] was below 0.01. The CL on Cytochrome P450 3A4 [6] came to 3 µL/min/mg.

Source of the values: ChEMBL document CHEMBL3526034 (Drug Metab Dispos, 2013).
